The record followed here is patent US8361998B2, “Compounds and their use as IKACh blockers” (AstraZeneca AB, priority 2010, dated 2013).

This assay concerns the target T1, human cardiac ion channel proteins hKir3.1/Kir3.4 (Homo sapiens, UniProt P48544+P48549).
T1 construct: expressed in transfected cells
T1 sequence (P48549 1-501): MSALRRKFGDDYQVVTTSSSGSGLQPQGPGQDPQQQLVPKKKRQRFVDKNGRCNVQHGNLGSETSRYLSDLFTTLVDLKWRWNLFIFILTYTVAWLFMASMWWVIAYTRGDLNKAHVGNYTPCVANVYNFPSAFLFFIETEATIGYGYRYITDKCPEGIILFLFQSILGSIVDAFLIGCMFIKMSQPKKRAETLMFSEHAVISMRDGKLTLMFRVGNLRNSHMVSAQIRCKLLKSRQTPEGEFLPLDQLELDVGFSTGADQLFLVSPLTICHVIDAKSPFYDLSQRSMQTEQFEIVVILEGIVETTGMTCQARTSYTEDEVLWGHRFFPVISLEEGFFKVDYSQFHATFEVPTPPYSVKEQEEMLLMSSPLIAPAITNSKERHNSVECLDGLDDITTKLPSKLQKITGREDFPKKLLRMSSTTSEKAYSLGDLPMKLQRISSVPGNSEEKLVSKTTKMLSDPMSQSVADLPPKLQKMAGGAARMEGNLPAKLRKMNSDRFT
T1 sequence (P48544 1-419): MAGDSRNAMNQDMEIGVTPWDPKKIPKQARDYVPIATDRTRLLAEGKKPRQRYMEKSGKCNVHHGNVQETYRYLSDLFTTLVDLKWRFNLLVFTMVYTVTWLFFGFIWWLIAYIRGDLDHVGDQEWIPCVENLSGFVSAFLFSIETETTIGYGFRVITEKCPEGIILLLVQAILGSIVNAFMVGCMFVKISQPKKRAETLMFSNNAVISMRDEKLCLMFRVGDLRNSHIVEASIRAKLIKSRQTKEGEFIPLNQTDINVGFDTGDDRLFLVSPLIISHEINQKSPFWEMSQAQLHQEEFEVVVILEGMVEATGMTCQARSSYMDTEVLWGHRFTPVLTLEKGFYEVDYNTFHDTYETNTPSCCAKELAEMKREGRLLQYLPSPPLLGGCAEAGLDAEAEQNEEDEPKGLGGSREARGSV
As to the kind of experiment: Atomic Absorption Screening (AAS) Rb efflux assay of hKir3.1/Kir3.4 block, carbachol/high K+ stimulated, 10-pt or 7-pt CR. It counts as cell-based. The method in brief: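 CHO-K1 cells stably co-expressing human Kir3.1/Kir3.4 were Rb-loaded for 3 h at 37° C, preincubated with compound 5 min at RT, then stimulated 10 min with 10 μM carbachol plus 20 mM KCl (final). Supernatant Rb was measured by atomic absorption. Compounds ran at 0.003–67 μmol/L (10-pt) or 0.037–27 μmol/L (7-pt), threefold dilutions; IC50s are means of >4 or >3 replicates respectively.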

Where [1] appears, read: 10-pt CR (0.003 to 67 μmol/L), AAS Rb efflux, CHO-K1 cells expressing hKir3.1/Kir3.4, mean of >4 replicates, read-out: IKACh IC50 10-pt CR, AAS.
Setting [2] is: printed as IC50 >67 μM in the 10-pt CR assay or IC50 >27 μM in the 7-pt CR assay, assay format per compound not stated, read-out: IC50.

Like-named read-outs stand apart in the source and are kept apart here.

Take `COc1cc(C(=O)N(C)[C@@H](CC(C)C)CN2CC(O)C2)ccc1F` [Example 38.5, 4-Fluoro-N-[(2S)-1-(3-hydroxyazetidin-1-yl)-4-methylpentan-2-yl]-3-methoxy-N-methylbenzamide]: the IC50 under setting [1] was found to be 4200 nM.

Turning to `COc1cc(Cl)ccc1C(=O)N(C)[C@@H](CC(C)C)CN1CC(O)C1` [Example 38.7, 4-Chloro-N-[(2S)-1-(3-hydroxyazetidin-1-yl)-4-methylpentan-2-yl]-2-methoxy-N-methylbenzamide], under setting [1], the half-inhibitory concentration (IC50) is 470 nM.

On to `CSc1ccc(C(=O)N(C)[C@@H](CC(C)C)CN2CC(O)C2)cc1` [Example 38.8, N-[(2S)-1-(3-Hydroxyazetidin-1-yl)-4-methylpentan-2-yl]-N-methyl-4-(methylsulfanyl)benzamide], for which the IC50 under setting [1] is 830 nM.

`CN(C(=O)c1ccc(F)cc1Cl)[C@H](CN1CC(O)C1)C1CCC1` [Example 39.1, (S)-2-chloro-N-(1-cyclobutyl-2-(3-hydroxyazetidin-1-yl)ethyl)-4-fluoro-N-methylbenzamide]: the IC50 under setting [1] turned out to be 1100 nM.

With `CN(C(=O)c1ccc(F)c(F)c1)[C@H](CN1CC(O)C1)C1CCC1` [Example 39.3, (S)—N-(1-Cyclobutyl-2-(3-hydroxyazetidin-1-yl)ethyl)-3,4-difluoro-N-methylbenzamide], under setting [1], the half-inhibitory concentration (IC50) came to 410 nM.

Take `CN(C(=O)c1ccc(F)cc1F)[C@H](CN1CC(O)C1)C1CCC1` [Example 39.4, (S)—N-(1-Cyclobutyl-2-(3-hydroxyazetidin-1-yl)ethyl)-2,4-difluoro-N-methylbenzamide]: the half-maximal inhibitory concentration (IC50) under setting [1] came to 7800 nM.

Regarding `COc1ccc(C(=O)N(C)[C@H](CN2CC(O)C2)C2CCC2)c(F)c1` [Example 39.5, (S)—N-(1-Cyclobutyl-2-(3-hydroxyazetidin-1-yl)ethyl)-2-fluoro-4-methoxy-N-methylbenzamide], under setting [1], the half-maximal inhibitory concentration (IC50) was 1100 nM.

On to `COc1ccc(C(=O)N(C)[C@H](CN2CC(O)C2)C2CCC2)cc1F` [Example 39.6, (S)—N-(1-Cyclobutyl-2-(3-hydroxyazetidin-1-yl)ethyl)-3-fluoro-4-methoxy-N-methylbenzamide], for which the IC50 under setting [1] stood at 480 nM.

Regarding `CN(C(=O)c1ccccc1)[C@H](CN1CC(O)C1)C1CCC1` [Example 39.7, (S)—N-(1-Cyclobutyl-2-(3-hydroxyazetidin-1-yl)ethyl)-N-methylbenzamide], the IC50 under setting [1] was found to be 1400 nM.

As to `CN(C(=O)c1ccc(C(F)(F)F)cc1)[C@H](CN1CC(O)C1)C1CCC1` [Example 39.8, (S)—N-(1-Cyclobutyl-2-(3-hydroxyazetidin-1-yl)ethyl)-N-methyl-4-(trifluoromethyl)benzamide], under setting [1], the IC50 turned out to be 230 nM.

With `COc1ccc(C(=O)N(C)[C@H](CN2CC(O)C2)C2CCC2)cc1C` [Example 39.9, (S)—N-(1-Cyclobutyl-2-(3-hydroxyazetidin-1-yl)ethyl)-4-methoxy-N,3-dimethylbenzamide], under setting [1], the 50% inhibitory concentration (IC50) amounted to 340 nM.

As for `Cc1ccc(F)c(C(=O)N(C)[C@H](CN2CC(O)C2)C2CCC2)c1` [Example 39.10, (S)—N-(1-Cyclobutyl-2-(3-hydroxyazetidin-1-yl)ethyl)-2-fluoro-N,5-dimethylbenzamide], under setting [1], the half-maximal inhibitory concentration (IC50) is 810 nM.

With `CC[C@@H](CN1CC(O)C1)N(C)C(=O)c1ccc(Cl)c(F)c1` [Example 39.11, (S)-4-Chloro-3-fluoro-N-(1-(3-hydroxyazetidin-1-yl)butan-2-yl)-N-methylbenzamide], the IC50 under setting [1] was 1600 nM.

With `CN(C(=O)c1ccc(F)cc1)[C@H](CN1CC(O)C1)C1CCC1` [Example 39.13, (S)—N-(1-Cyclobutyl-2-(3-hydroxyazetidin-1-yl)ethyl)-4-fluoro-N-methylbenzamide], the IC50 under setting [1] was found to be 160 nM.

Regarding `CN(C(=O)c1cccc(C(F)F)c1)[C@H](CN1CC(O)C1)C1CCC1` [Example 39.15, (S)—N-(1-Cyclobutyl-2-(3-hydroxyazetidin-1-yl)ethyl)-3-(difluoromethyl)-N-methylbenzamide], the IC50 under setting [1] was 250 nM.

`C[C@@H](CN1CC(O)C1)N(C)C(=O)c1ccc(Cl)cc1` [Example 40.1, (S)-4-Chloro-N-(1-(3-hydroxyazetidin-1-yl)propan-2-yl)-N-methylbenzamide]: the IC50 under setting [1] came out at 9700 nM.

For `Cc1ccc(C(=O)N(C)[C@@H](C)CN2CC(O)C2)cc1C` [Example 40.2, (S)—N-(1-(3-Hydroxyazetidin-1-yl)propan-2-yl)-N,3,4-trimethylbenzamide], under setting [1], the IC50 was 8500 nM.

Turning to `C[C@@H](CN1CC(O)C1)N(C)C(=O)c1ccc(Cl)c(F)c1` [Example 40.3, (S)-4-Chloro-3-fluoro-N-(1-(3-hydroxyazetidin-1-yl)propan-2-yl)-N-methylbenzamide], the IC50 under setting [1] came out at 9400 nM.

For the molecule `Cc1cc(C(=O)N(C)[C@@H](C)CN2CC(O)C2)ccc1Cl` [Example 40.4, (S)-4-Chloro-N-(1-(3-hydroxyazetidin-1-yl)propan-2-yl)-N,3-dimethylbenzamide], the IC50 under setting [1] stood at 6100 nM.

Take `C[C@@H](CN1CC(O)C1)N(C)C(=O)c1ccc(Br)cc1` [Example 41, (S)-4-Bromo-N-(1-(3-hydroxyazetidin-1-yl)propan-2-yl)-N-methylbenzamide]: the concentration for half-maximal inhibition (IC50) under setting [1] worked out at 7300 nM.

In the case of `CC[C@@H](CN1CC(O)C1)N(C)C(=O)c1ccc(Br)cc1` [Example 42, (S)-4-Bromo-N-(1-(3-hydroxyazetidin-1-yl)butan-2-yl)-N-methylbenzamide], under setting [1], the concentration for half-maximal inhibition (IC50) is 4000 nM.

`CCC[C@@H](CN1CCC(O)CC1)N(C)C(=O)c1ccc(Cl)cc1` [Example 44, (S)-4-Chloro-N-(1-(4-hydroxypiperidin-1-yl)pentan-2-yl)-N-methylbenzamide]: the IC50 under setting [1] came to 810 nM.

With `CCC[C@@H](CN1CCC(OC)CC1)N(C)C(=O)c1ccc(Cl)cc1` [Example 45, (S)-4-Chloro-N-(1-(4-methoxypiperidin-1-yl)pentan-2-yl)-N-methylbenzamide], the half-maximal inhibitory concentration (IC50) under setting [1] came out at 680 nM.

For the molecule `CCC[C@@H](CN1CC[C@H](O)C1)N(C)C(=O)c1ccc(C#N)cc1` [Example 46.1, 4-Cyano-N-((S)-1-((S)-3-hydroxypyrrolidin-1-yl)pentan-2-yl)-N-methylbenzamide], the IC50 under setting [1] was 8000 nM.

Consider `CCC[C@@H](CN1CC[C@H](O)C1)N(C)C(=O)c1ccc(Cl)cc1` [Example 46.2, 4-Chloro-N—((S)-1-((S)-3-hydroxypyrrolidin-1-yl)pentan-2-yl)-N-methylbenzamide], for which the 50% inhibitory concentration (IC50) under setting [1] worked out at 5500 nM.

On to `Cc1cc(C(=O)N(C)[C@H](CN2C[C@@H](O)[C@H](O)C2)C(C)C)ccc1F` [N-((S)-1-((3R,4R)-3,4-Dihydroxypyrrolidin-1-yl)-3-methylbutan-2-yl)-4-fluoro-N,3-dimethylbenzamide], for which the concentration for half-maximal inhibition (IC50) under setting [2] was greater than 27000 nM.

With `CC(C)[C@@H](CCN1CCCC1)N(C)C(=O)c1ccccc1` [N-Methyl-N-[(1R)-2-methyl-1-(2-pyrrolidin-1-ylethyl)propyl]benzamide], the half-inhibitory concentration (IC50) under setting [2] is greater than 27000 nM.

As for `CC(C)[C@H](CN1CCCC1)N(C)C(=O)c1ccccc1OC(F)(F)F` [N-Methyl-N-[(1R)-2-methyl-1-(pyrrolidin-1-ylmethyl)propyl]-2-(trifluoromethoxy)benzamide], under setting [2], the half-maximal inhibitory concentration (IC50) is greater than 27000 nM.

On to `CC(C)[C@@H](CN1CCCCC1)N(C)C(=O)c1ccc(OC(F)(F)F)cc1` [N-Methyl-N-[(1S)-2-methyl-1-(piperidin-1-ylmethyl)propyl]-4-(trifluoromethoxy)benzamide], for which the IC50 under setting [2] was greater than 27000 nM.

As to `CC(C)[C@@H](CN1CCCC1)N(C)C(=O)c1ccccc1` [N-Methyl-N-[(1S)-2-methyl-1-(pyrrolidin-1-ylmethyl)propyl]benzamide], under setting [2], the concentration for half-maximal inhibition (IC50) is greater than 27000 nM.

For the molecule `COc1cccc(C(=O)N(C)[C@H](CN2CCCC(F)(F)C2)C(C)C)c1` [N-[(1S)-1-[(3,3-Difluoro-1-piperidyl)methyl]-2-methyl-propyl]-3-methoxy-N-methyl-benzamide], the IC50 under setting [2] is greater than 27000 nM.

Take `Cc1cccc(C(=O)N(C)[C@H](CN2CC[C@H](O)C2)C(C)C)c1` [N-[(1S)-1-{[(3S)-3-Hydroxypyrrolidin-1-yl]methyl}-2-methylpropyl]-N,3-dimethylbenzamide]: under setting [2], the IC50 is greater than 27000 nM.

Regarding `CN(C(=O)c1ccc(C#N)cc1)[C@H](CN1CCC1)C1CC1` [N-[(1S)-2-(Azetidin-1-yl)-1-cyclopropyl-ethyl]-4-cyano-N-methyl-benzamide], the IC50 under setting [2] was greater than 27000 nM.
